Measured values as given in ChEMBL document CHEMBL3124891, “Tetrahydroquinoline derivatives as potent and selective factor XIa inhibitors” (J Med Chem, 2014).
Activity calls are given as the source filed them. The calls are words filed in the database; no cut-off is given here.

How the values were obtained:
Coagulation factor VII = molecular target: T1, Coagulation factor VII (Homo sapiens, UniProt P08709); test: Binding affinity to human factor 7a assessed as release of p-nitroaniline after 10 to 120 mins by spectrophotometric analysis
T1 sequence (P08709 whole entry): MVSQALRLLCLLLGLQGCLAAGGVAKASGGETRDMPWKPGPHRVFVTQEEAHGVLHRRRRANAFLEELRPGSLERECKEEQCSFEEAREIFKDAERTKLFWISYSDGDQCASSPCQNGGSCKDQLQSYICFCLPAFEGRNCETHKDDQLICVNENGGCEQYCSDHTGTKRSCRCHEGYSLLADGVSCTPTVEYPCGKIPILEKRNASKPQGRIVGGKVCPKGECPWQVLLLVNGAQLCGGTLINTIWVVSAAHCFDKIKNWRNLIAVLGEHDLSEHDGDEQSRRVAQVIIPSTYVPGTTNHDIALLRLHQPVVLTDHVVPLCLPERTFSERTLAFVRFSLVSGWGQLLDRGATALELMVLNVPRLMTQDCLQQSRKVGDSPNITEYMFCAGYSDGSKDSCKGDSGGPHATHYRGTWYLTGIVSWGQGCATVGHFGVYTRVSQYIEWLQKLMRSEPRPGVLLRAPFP

Coagulation factor X = Coagulation factor X (Homo sapiens, UniProt P00742); test: Binding affinity to human factor 10a assessed as release of p-nitroaniline after 10 to 120 mins by spectrophotometric analysis
Sequence of Coagulation factor X (P00742 41-179 limits assumed): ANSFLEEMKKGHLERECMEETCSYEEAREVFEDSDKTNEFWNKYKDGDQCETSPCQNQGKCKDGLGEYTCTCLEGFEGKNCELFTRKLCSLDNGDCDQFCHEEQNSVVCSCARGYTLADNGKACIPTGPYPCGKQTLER
Sequence of Coagulation factor X (P00742 235-488 limits assumed): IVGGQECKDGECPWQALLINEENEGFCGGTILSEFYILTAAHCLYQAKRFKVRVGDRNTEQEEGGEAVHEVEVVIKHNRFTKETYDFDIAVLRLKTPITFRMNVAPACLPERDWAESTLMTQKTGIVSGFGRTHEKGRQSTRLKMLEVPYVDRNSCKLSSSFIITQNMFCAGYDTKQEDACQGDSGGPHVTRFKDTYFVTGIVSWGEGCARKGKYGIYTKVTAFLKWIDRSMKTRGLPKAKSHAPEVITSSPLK

Coagulation factor XI [1] = molecular target: T2, Coagulation factor XI (Homo sapiens, UniProt P03951); test: Binding affinity to human factor 11a assessed as release of p-nitroaniline after 10 to 120 mins by spectrophotometric analysis
T2 sequence (P03951 19-387 limits assumed): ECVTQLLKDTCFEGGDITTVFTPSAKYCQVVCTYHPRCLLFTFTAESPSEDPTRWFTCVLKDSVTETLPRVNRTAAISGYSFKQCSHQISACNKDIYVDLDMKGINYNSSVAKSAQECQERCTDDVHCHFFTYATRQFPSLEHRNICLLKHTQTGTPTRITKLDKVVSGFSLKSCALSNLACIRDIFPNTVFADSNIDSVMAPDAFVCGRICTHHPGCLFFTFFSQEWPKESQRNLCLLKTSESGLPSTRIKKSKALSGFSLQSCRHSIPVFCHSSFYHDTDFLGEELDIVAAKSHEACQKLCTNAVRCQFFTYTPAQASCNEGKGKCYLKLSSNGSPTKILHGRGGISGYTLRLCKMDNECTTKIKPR
T2 sequence (P03951 388-625 limits assumed): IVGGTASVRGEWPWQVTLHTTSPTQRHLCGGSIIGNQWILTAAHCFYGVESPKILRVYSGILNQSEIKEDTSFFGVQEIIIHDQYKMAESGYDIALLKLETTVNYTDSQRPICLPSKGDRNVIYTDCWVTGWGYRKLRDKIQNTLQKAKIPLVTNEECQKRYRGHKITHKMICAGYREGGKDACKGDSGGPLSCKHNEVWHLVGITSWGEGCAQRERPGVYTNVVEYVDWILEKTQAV

Plasma = test: Anticoagulant activity in human plasma assessed as concentration required to double activated partial thromboplastin time; assay type: functional
Homo sapiens [2] = species on record: Homo sapiens; test: Selectivity ratio of Ki for human factor 7a to Ki for human factor 11a
Homo sapiens [3] = species on record: Homo sapiens; test: Selectivity ratio of Ki for human factor 10a to Ki for human factor 11a
Oryctolagus cuniculus = test: Antithrombotic activity in rabbit arteriovenous-shunt thrombosis model assessed as inhibition of clot formation compound administered as single bolus dose followed by five continuous infusion dose; assay type: functional
Coagulation factor XI [4] = molecular target: T2, Coagulation factor XI; test: Competitive inhibition of human factor 11a assessed as release of p-nitroaniline after 10 to 120 mins by Michaelis-Menten equation analysis
Coagulation factor XI [5] = molecular target: T2, Coagulation factor XI; test: Mixed-type inhibition of human factor 11a

Ki (Coagulation factor VII) [nM]	Ki (Coagulation factor X) [nM]	Ki (Coagulation factor XI [1]) [nM]	Ratio Ki (Homo sapiens [2])	Ratio Ki (Homo sapiens [3])	inhibition (Coagulation factor XI [4])	inhibition (Coagulation factor XI [5])	SMILES	EC (Plasma) [µM]	inhibition (Oryctolagus cuniculus)
450	1480	0.69	–	–	–	–	CCC(=O)Nc1cc(-c2ccc(C(N)=O)cc2C(=O)O)cc([C@@H]2C[C@](C)(c3ccccc3)c3cc(C(=N)N)ccc3N2)c1 (racemic)	3.4	–
610	> 15000	466	–	–	–	–	CN(C)Cc1ccc(-c2cccc([C@@H]3C[C@](C)(c4ccccc4)c4cc(C(=N)N)ccc4N3)c2)c(C(=O)O)c1 (racemic)	–	–
705	5810	110	–	–	–	–	CC(=O)Nc1ccc(-c2cccc([C@@H]3C[C@](C)(c4ccccc4)c4cc(C(=N)N)ccc4N3)c2)c(C(=O)O)c1 (racemic)	–	–
–	–	–	200	> 1000	–	–	CC1(c2ccccc2)CC(c2cccc(-c3ccc(C(N)=O)cc3C(=O)O)c2)Nc2ccc(C(=N)N)cc21 (single isomer, unassigned; (+)) [listing 1 of 2 here]	–	–
1010	784	0.59	–	–	–	–	CC(C)CC(=O)Nc1cc(-c2ccc(C(N)=O)cc2C(=O)O)cc([C@@H]2C[C@](C)(c3ccccc3)c3cc(C(=N)N)ccc3N2)c1 (racemic)	6.1	–
290	970	8.5	30	100	–	–	N=C(N)c1ccc2c(c1)[C@@H](c1ccccc1)C[C@@H](c1ccccc1-c1ccc(C(=O)O)cc1C(=O)O)N2 (racemic)	–	–
1960	4100	154	–	–	–	–	CNC(=O)c1ccc(-c2cccc([C@@H]3C[C@](C)(c4ccccc4)c4cc(C(=N)N)ccc4N3)c2)c(C(=O)O)c1 (racemic)	–	–
86	2330	0.39	–	–	–	–	CC1(c2ccccc2)CC(c2cccc(-c3ccc(C(N)=O)cc3C(=O)O)c2)Nc2ccc(C(=N)N)cc21 (single isomer, unassigned; (+)) [listing 2 of 2 here]	–	–
474	880	0.72	–	–	–	–	C[C@]1(c2ccccc2)C[C@@H](c2cc(NC(=O)C3CC3)cc(-c3ccc(C(N)=O)cc3C(=O)O)c2)Nc2ccc(C(=N)N)cc21 (racemic)	4.5	–
867	2060	48	–	–	–	–	C[C@]1(c2ccccc2)C[C@@H](c2cccc(-c3ccc(C#N)cc3C(=O)O)c2)Nc2ccc(C(=N)N)cc21 (racemic)	–	–
16300	8350	26	–	–	–	–	C[C@]1(c2ccccc2)C[C@H](c2cccc(-c3ccc(C(N)=O)cc3C(=O)O)c2)Nc2ccc(C(=N)N)cc21 (racemic)	–	–
1290	6400	540	–	–	–	–	CC(C)(C)NC(=O)c1ccc(-c2cccc([C@@H]3C[C@](C)(c4ccccc4)c4cc(C(=N)N)ccc4N3)c2)c(C(=O)O)c1 (racemic)	–	–
–	–	1960	–	–	–	–	CCC[C@]1(c2ccccc2)C[C@@H](c2cccc(-c3ccc(C(=O)O)cc3C(=O)O)c2)Nc2ccc(C(=N)N)cc21 (racemic)	–	–
230	1810	1	–	–	–	–	CC(=O)Nc1cc(-c2ccc(C(N)=O)cc2C(=O)O)cc([C@@H]2C[C@](C)(c3ccccc3)c3cc(C(=N)N)ccc3N2)c1 (racemic)	2.1	–

The next lines start with the molecule.

SMILES	Ki (Coagulation factor VII) [nM]	Ki (Coagulation factor X) [nM]	Ki (Coagulation factor XI [1]) [nM]	Ratio Ki (Homo sapiens [2])	Ratio Ki (Homo sapiens [3])	inhibition (Coagulation factor XI [4])	inhibition (Coagulation factor XI [5])	EC (Plasma) [µM]	inhibition (Oryctolagus cuniculus)
N=C(N)c1ccc2c(c1)[C@@H](c1ccccc1)C[C@@H](c1cc(N)cc(-c3ccccc3C(=O)O)c1)N2 (racemic)	41	57	7.6	–	–	–	–	–	–
COC(=O)c1ccc(-c2cccc([C@@H]3C[C@](C)(c4ccccc4)c4cc(C(=N)N)ccc4N3)c2)c(C(=O)O)c1 (racemic)	442	606	79	–	–	–	–	–	–
CC(C)CNC(=O)c1ccc(-c2ccccc2[C@@H]2C[C@H](c3ccccc3)c3cc(C(=N)N)ccc3N2)c(C(=O)O)c1 (racemic)	95	1100	25	4	40	–	–	–	–
C[C@]1(c2ccccc2)C[C@@H](c2cccc(-c3ccc(C(=O)O)cc3C(=O)O)c2)Nc2ccc(C(=N)N)cc21 (racemic)	2600	9300	61	–	–	–	–	–	–
CCCC(=O)Nc1cc(-c2ccc(C(N)=O)cc2C(=O)O)cc([C@@H]2C[C@](C)(c3ccccc3)c3cc(C(=N)N)ccc3N2)c1 (racemic)	520	641	0.3	–	–	–	–	4.1	–
CNC(=O)Nc1ccc(-c2cccc([C@@H]3C[C@](C)(c4ccccc4)c4cc(C(=N)N)ccc4N3)c2)c(C(=O)O)c1 (racemic)	451	1140	15	–	–	–	–	–	–
CC(C)CNC(=O)c1ccc(-c2cccc([C@@H]3C[C@H](c4ccccc4)c4cc(C(=N)N)ccc4N3)c2)c(C(=O)O)c1 (racemic)	25	24	23	–	–	–	–	–	–
CC1(c2ccccc2)CC(c2cccc(-c3ccc(C(N)=O)cc3C(=O)O)c2)Nc2ccc(C(=N)N)cc21 (single isomer, unassigned; enantiomer 2)	> 15000	> 15000	335	–	–	–	–	–	–
C[C@]1(c2ccccc2)C[C@@H](c2cc(N)cc(-c3ccc(C(N)=O)cc3C(=O)O)c2)Nc2ccc(C(=N)N)cc21 (racemic)	56	2250	0.64	–	–	–	–	1.2	–
N=C(N)c1ccc2c(c1)[C@@H](c1ccccc1)C[C@@H](c1cccc(-c3ccc(C(=O)O)cc3C(=O)O)c1)N2 (racemic)	89	130	3.9	20	30	–	–	–	–
CC(C)CC(=O)Nc1cc(-c2ccc(C(N)=O)cc2C(=O)O)cc(C2CC(C)(c3ccccc3)c3cc(C(=N)N)ccc3N2)c1 (single isomer, unassigned; enantiomer 2)	–	–	–	–	–	Active	Active	–	Dose-dependent effect
N=C(N)c1ccc2c(c1)[C@@H](c1ccccc1)C[C@@H](c1ccccc1-c1ccccc1C(=O)O)N2 (racemic)	2200	1940	110	–	–	–	–	–	–
N=C(N)c1ccc2c(c1)[C@@H](c1ccccc1)C[C@@H](c1ccccc1-c1ccc(C(=O)O)cc1)N2 (racemic)	–	–	2400	–	–	–	–	–	–
CC(C)NC(=O)c1ccc(-c2cccc([C@@H]3C[C@](C)(c4ccccc4)c4cc(C(=N)N)ccc4N3)c2)c(C(=O)O)c1 (racemic)	1770	1310	207	–	–	–	–	–	–
C[C@]1(c2ccccc2)C[C@@H](c2cccc(-c3ccccc3C(=O)O)c2)Nc2ccc(C(=N)N)cc21 (racemic)	3060	6700	110	–	–	–	–	–	–
CC(C)CC(=O)Nc1cc(-c2ccc(C(N)=O)cc2C(=O)O)cc(C2CC(C)(c3ccccc3)c3cc(C(=N)N)ccc3N2)c1 (single isomer, unassigned; enantiomer 1)	> 10900	5670	230	–	–	–	–	–	–
C[C@]1(c2ccccc2)C[C@@H](c2cccc(-c3ccc(C(N)=O)cc3C(=O)O)c2)Nc2ccc(C(=N)N)cc21 (racemic)	280	3000	1.5	–	–	–	–	8.6	–
CC[C@]1(c2ccccc2)C[C@@H](c2cccc(-c3ccc(C(=O)O)cc3C(=O)O)c2)Nc2ccc(C(=N)N)cc21 (racemic)	–	–	830	–	–	–	–	–	–
C[C@]1(c2ccccc2)C[C@@H](c2cccc(-c3ccc(NS(C)(=O)=O)cc3C(=O)O)c2)Nc2ccc(C(=N)N)cc21 (racemic)	237	> 15000	37	–	–	–	–	–	–
C[C@]1(c2ccccc2)C[C@@H](c2cccc(-c3ccc(N)cc3C(=O)O)c2)Nc2ccc(C(=N)N)cc21 (racemic)	275	3980	64	–	–	–	–	–	–
